The test system of series [1] is Trichophyton mentagrophytes. The series can be described thus: […] activity against Trichophyton mentagrophytes assessed as […]. The format is functional.
In a further series the test system is L1210. Description: Cytotoxicity against mouse L1210 cells assessed as cell growth inhibition. The format is functional, cell-based.
A further series concerns Corynebacterium xerosis. The series can be described thus: Antibacterial activity against Corynebacterium xerosis assessed as bacterial growth inhibition. It counts as functional.
For series [2], the target named is Cyclin-dependent kinase 4 (Homo sapiens, UniProt P11802). Description: Inhibition of CDK4 (unknown origin).
Sequence of Cyclin-dependent kinase 4 (P11802 whole entry): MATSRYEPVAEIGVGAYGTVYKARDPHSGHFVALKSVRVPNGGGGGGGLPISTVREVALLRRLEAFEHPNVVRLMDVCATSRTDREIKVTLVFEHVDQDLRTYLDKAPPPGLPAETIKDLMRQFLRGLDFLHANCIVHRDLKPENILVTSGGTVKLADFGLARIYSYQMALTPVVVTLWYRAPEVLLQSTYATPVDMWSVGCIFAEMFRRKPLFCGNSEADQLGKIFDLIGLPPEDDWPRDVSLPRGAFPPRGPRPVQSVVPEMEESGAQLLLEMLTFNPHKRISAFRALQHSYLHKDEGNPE
The nature of series [3]: Toxicity in mouse assessed as lethal dose. The following applies: in vivo.

Converted amounts (≈) assume the structure as drawn.

These results are taken from ChEMBL document CHEMBL5120753, “Isolation and biological activity of azocine and azocane alkaloids” (Bioorg Med Chem, 2022).

One may read the MIC as the lowest concentration that inhibits growth of the organism. One may read the IC50 as the concentration that inhibits the measured activity by half.

For `C1=C\CCc2cc3c(o2)[C@@H]2N4CCCC/C=C\[C@H]4C[C@@]24CN(CCCC/1)CC[C@@H]34`, the MIC is 23 mg/L (≈ 58.6 µM) in series [1] and 11 mg/L (≈ 28 µM) in the series on Corynebacterium xerosis. Moreover, the IC50 in the series on L1210 was 1.3 mg/L (≈ 3.31 µM); in series [2] it was 25.2 µM.

For `C[N@@+]12CC[C@]34c5ccccc5N5/C=C6\[C@@H]7N(/C=C(\[C@H]53)[C@H](C[C@@H]41)/C(=C\CO)C2)c1ccccc1[C@@]71CC[N@@+]2(C)C/C(=C/CO)[C@H]6C[C@@H]12`, the LD in series [3] was found to be 0.8 mg/kg.
